US20050019869A1, “Chimeric neuropeptide Y receptors” (priority 2000, published 2005)
No end group written: not given here.

Tests used:
NPY5 receptor = target: T1, NPY5 receptor (Homo sapiens, UniProt Q15761); experiment: [125I]PYY competition binding, Sf9 membranes expressing NPY5; settings: displacement of 0.050 nM [125I]PYY (porcine)
T1 construct: made in house; host or cells: Sf9 insect cells infected with recombinant baculovirus; purified membranes
T1 sequence (Q15761 with tags, fused parts or gaps): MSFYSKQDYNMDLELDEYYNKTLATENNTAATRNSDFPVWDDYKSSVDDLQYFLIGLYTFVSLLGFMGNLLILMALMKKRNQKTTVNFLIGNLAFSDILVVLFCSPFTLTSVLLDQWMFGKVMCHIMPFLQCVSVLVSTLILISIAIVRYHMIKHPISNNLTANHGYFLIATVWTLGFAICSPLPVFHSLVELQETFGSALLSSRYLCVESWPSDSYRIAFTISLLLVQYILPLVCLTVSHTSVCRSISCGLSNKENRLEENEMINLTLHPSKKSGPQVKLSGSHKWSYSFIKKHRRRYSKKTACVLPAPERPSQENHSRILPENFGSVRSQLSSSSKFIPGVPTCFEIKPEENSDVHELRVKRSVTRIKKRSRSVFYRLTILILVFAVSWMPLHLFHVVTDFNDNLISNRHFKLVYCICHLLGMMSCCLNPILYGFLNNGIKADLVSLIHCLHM
Experimental: (§1) 72 hours post-infection, a sample of cell suspension was analyzed for viability by trypan blue dye exclusion, and the remaining Sf9 cells were harvested via centrifugation (3000 rpm/10 minutes/4° C.).
(§2) Sf9 cell pellets prepared in Example 3 were resuspended in homogenization buffer (10 mM HEPES, 250 mM sucrose, 0.5 μg/ml leupeptin, 2 μg/ml Aprotinin, 200 μM PMSF, and 2.5 mM EDTA, pH 7.4) and homogenized using a POLYTRON homogenizer (setting 5 for 30 seconds). The homogenate was centrifuged (536×g/10 minutes/4° C.) to pellet the nuclei. The supernatant containing isolated membranes was decanted to a clean centrifuge tube, centrifuged (48,000×g/30 minutes, 4° C.) and resuspended in 30 ml homogenization buffer. This centrifugation and resuspension step was repeated twice. The final pellet was resuspended in ice cold Dulbecco's PBS containing 5 mM EDTA and stored at −80° C. in aliquots until needed. The protein concentration of the resulting membrane preparation was measured using the Bradford protein assay (Bio-Rad Laboratories, Hercules, Calif.).
(§3) Purified P2 membranes, prepared by the method given above in Example 4, were washed with PBS and resuspended by Dounce homogenization (tight pestle) in binding buffer (50 mM Tris-HCl, 5 mM KCl, 120 mM NaCl, 2 mM CaCl2, 1 mM MgCl2, 0.1% BSA, pH 7.4).
(§4) Nonspecific binding was determined in the presence of 1 μM NPY (human, American Peptide Co., Sunnyvale, Calif.) and accounted for less that 10% of total binding. Following a 2-hour incubation at room temperature, the reaction was terminated by rapid vacuum filtration. Samples were filtered over presoaked (in 1.0% polyethyeneimine for 2 hours prior to use) GF/C WHATMAN filters and rinsed 2 times with 5 mLs cold binding buffer without BSA. Remaining bound radioactivity was quantified by gamma counting. Ki and Hill coefficient (“nH”) were determined by fitting the Hill equation to the measured values with the aid of SIGMAPLOT software (SPSS Inc., Chicago).

[1] = target: T2, NPY5ΔY1IC3 chimeric receptor (Homo sapiens, UniProt Q15761, DEL238-360/INS235IRLKRRNNMMDKMRDNKY/K361S); experiment: [125I]PYY competition binding, Sf9 membranes expressing NPY5ΔY1IC3; settings: displacement of 0.050 nM [125I]PYY (porcine)
T2 construct: made in house; host or cells: Sf9 insect cells infected with recombinant baculovirus (pBacPAK9 vector); purified membranes
T2 sequence (Q15761 with tags, fused parts or gaps INS235IRLKRRNNMMDKMRDNKY/DEL238-360/K361S): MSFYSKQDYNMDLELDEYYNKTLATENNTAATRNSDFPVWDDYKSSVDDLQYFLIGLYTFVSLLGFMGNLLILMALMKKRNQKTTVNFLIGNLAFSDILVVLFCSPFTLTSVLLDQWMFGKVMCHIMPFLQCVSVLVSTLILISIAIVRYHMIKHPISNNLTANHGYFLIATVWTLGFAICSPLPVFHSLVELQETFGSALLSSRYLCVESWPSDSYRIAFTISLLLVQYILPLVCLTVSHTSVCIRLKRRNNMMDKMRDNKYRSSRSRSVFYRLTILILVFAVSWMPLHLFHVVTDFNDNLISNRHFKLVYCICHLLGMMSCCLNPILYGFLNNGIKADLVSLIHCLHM
Experimental: as §1, §2, §3, §4

[2] = target: T3, NPY5ΔY1CT chimeric receptor (Homo sapiens, UniProt P25929+Q15761); experiment: [125I]PYY competition binding, Sf9 membranes expressing NPY5ΔY1CT; settings: displacement of 0.050 nM [125I]PYY (porcine)
T3 construct: made in house; host or cells: Sf9 insect cells infected with recombinant baculovirus (pBacPAK9 vector); purified membranes
T3 sequence (Q15761+P25929 with tags, fused parts or gaps): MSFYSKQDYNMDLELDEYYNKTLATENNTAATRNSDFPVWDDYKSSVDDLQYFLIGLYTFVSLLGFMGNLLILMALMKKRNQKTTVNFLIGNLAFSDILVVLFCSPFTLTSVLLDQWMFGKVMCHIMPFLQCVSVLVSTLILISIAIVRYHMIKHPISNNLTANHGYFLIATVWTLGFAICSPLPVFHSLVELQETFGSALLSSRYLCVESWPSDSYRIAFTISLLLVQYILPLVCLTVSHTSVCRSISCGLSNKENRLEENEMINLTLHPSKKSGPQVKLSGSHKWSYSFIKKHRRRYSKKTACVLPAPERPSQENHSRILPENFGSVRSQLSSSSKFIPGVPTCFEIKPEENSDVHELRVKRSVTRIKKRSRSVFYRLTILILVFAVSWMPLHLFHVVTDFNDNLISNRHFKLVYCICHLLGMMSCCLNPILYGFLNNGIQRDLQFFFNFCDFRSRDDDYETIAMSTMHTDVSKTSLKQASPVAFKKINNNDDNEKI
Experimental: as §1, §2, §3, §4

Human NPY5ΔY1CT chimera = target: T4, Human NPY5ΔY1CT chimera (human); experiment: displacement of 0.050 nM [125I]PYY (porcine) from Sf9 membranes, filtration
T4 construct: Human NPY5 with its C-terminal intracellular domain replaced by that of human Y1; Expressed in Sf9 cells; assayed in purified membranes
T4 chain: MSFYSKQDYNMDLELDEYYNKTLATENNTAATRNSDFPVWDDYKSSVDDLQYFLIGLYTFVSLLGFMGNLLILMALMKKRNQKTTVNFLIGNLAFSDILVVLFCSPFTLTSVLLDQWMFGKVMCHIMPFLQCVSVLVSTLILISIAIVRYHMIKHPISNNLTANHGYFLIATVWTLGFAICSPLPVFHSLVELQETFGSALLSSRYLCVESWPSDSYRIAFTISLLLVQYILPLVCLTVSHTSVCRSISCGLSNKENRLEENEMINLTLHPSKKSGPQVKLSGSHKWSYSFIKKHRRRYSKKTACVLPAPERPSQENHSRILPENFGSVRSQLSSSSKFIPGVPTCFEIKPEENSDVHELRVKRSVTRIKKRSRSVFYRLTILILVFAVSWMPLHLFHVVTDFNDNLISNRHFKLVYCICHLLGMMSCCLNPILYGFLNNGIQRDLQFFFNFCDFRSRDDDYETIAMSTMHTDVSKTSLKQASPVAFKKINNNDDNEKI
Experimental: (§5) Following a 2-hour incubation at room temperature, the reaction was terminated by rapid vacuum filtration. Samples were filtered over presoaked (in 1.0% polyethyeneimine for 2 hours prior to use) GF/C WHATMAN filters and rinsed 2 times with 5 mLs cold binding buffer without BSA. Remaining bound radioactivity was quantified by gamma counting. Kᵢ and Hill coefficient (“nH”) were determined by fitting the Hill equation to the measured values with the aid of SIGMAPLOT software (SPSS Inc., Chicago).

Human Y5 receptor (NPY5) = target: T5, Human Y5 receptor (NPY5) (human, UniProt Q15761 1-445); experiment: as above
T5 construct: Full-length receptor expressed by baculovirus in Sf9 insect cells; assayed in purified Sf9 membranes, not on whole cells; also called native NPY5 receptor; hY5
T5 sequence: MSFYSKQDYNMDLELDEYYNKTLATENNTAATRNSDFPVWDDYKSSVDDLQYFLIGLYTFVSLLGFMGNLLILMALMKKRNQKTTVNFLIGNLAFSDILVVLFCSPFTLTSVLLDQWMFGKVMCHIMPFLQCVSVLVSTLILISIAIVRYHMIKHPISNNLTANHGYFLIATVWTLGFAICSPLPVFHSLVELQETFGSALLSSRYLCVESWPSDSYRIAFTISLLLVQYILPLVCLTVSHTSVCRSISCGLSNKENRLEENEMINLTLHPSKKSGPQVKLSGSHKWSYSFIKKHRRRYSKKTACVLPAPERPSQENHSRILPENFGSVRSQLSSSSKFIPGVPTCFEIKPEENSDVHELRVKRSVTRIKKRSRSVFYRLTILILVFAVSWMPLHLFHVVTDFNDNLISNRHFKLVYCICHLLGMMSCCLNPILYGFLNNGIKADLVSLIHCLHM
Experimental: as §5

## human D-Trp 32 NPY
NPY5 receptor
  nH (Hill coefficient): 0.7
[1]
  nH (Hill coefficient): 0.8
[2]
  nH (Hill coefficient): 0.9

## human NPY 1-36 [HNPY 1-36]
NPY5 receptor
  nH (Hill coefficient): 0.7
[1]
  nH (Hill coefficient): 1.0
[2]
  nH (Hill coefficient): 0.7

## human NPY 3-36 [HNPY 3-36]
NPY5 receptor
  nH (Hill coefficient): 0.7
[1]
  nH (Hill coefficient): 1.2
[2]
  nH (Hill coefficient): 0.6

## human NPY 13-36 [HNPY 13-36]
NPY5 receptor
  nH (Hill coefficient): 0.7
[1]
  nH (Hill coefficient): 1.0
[2]
  nH (Hill coefficient): 0.5

## APLEPVYPGDNATPEQMAQYAADLRRYINMLTRPRY (peptide, UniProt P01298 30-65, looked up, also called hPP; HPP) [human pancreatic polypeptide]
Human NPY5ΔY1CT chimera
  Ki: 0.31 nM

## PAEDMARYYSALRHYINLITRQRY (peptide, UniProt P01303 41-64, looked up, ends and bridges not checked, range 13-36; also called HNPY 13-36) [human NPY 13-36]
Human Y5 receptor (NPY5)
  Ki: 20 nM
